Test results reported in publication PMC10916382, “Repurposing screen identifies novel candidates for broad-spectrum coronavirus antivirals and druggable host targets” (Antimicrobial Agents and Chemotherapy, 2024).
Where two headings read alike, the source gives them in different places.

Experiments:
[1] = in vitro; details: human
[2] = tested on: HCoV-229E; experiment: microbe, parasite or virus in culture; type: cell-based, Homo sapiens sapiens; details: Human coronavirus 229E
[3] = tested on: SARS-CoV-2
[4] = tested on: Huh-7.5/F-Luc cells
[5] = in vitro
[6] = Huh7.5, read-out: IC50 (µM), HCoV 229E
[7] = Calu-3 cells, immunofluorescence imaging
[8] = Huh-7.5/F-Luc cells, maximum tested dose 5 µM
[9] = Anti-SARS-CoV-2 screening on Calu-3 cells: viability [% of control], Calu-3 cells

Row | Structure (SMILES) | viability at 5 µM [1] [%] | IC50 [2, 6] [µM] | Anti-SARS-CoV-2 screening on Calu-3 cells: intracellular SARS-CoV-2 infection measured via immunofluorescence imaging [% of control] [3, 7] | CC50 (µM) [4, 8] | viability [5, 9] [%] | viability at 48 h, 5 µM [5] [%] | IC50 ([2]; Huh7.5, read-out: IC50 (µM), HCoV 229E, HCoV-229E/R-Luc on Huh-7.5/F-Luc cells, dose series, max. dose 5 µM) [µM] | Anti-SARS-CoV-2 screening on Calu-3 cells: intracellular SARS-CoV-2 infection measured via immunofluorescence imaging [% of control] [3] | CC50 (µM) [4] | viability ([5]; Anti-SARS-CoV-2 screening on Calu-3 cells: viability [% of control]) [%] | viability [5] [%]
1 | CN[C@@H](CC(C)C)C(=O)NCCCC(c1ccc(F)cc1)c1ccc(F)cc1 [RFM-010-013-0] | 136 | 2.77 | 111.66 % of control | greater than maximum tested dose | 99.2 |  |  |  |  |  | 
2 | COc1cccc(CCc2ccccc2OCC[C@@H]2C[C@@H](O)CN2C)c1 [RFM-011-187-5] | 131 | 2.43 | 105.26 % of control | greater than maximum tested dose | 102 |  |  |  |  |  | 
3 | CCN(CC)CCOc1ccc(-c2nc3cc(Cl)ccc3s2)cc1 [RFM-005-834-4] | 91.6 | 1.51 | 104.24 % of control | greater than maximum tested dose | 88.8 |  |  |  |  |  | 
4 | c1ccc2c(c1)Sc1ccccc1N2CC1CN2CCC1CC2 (centres unmarked) [RFM-000-842-4] | 166 | 1.6 | 112.52 % of control | greater than maximum tested dose |  | 110 |  |  |  |  | 
5 | OCCN1CCN(CCCN2c3ccccc3Sc3ccc(Cl)cc32)CC1 [RFM-000-391-8] | 181 | 1.84 | 116.90 % of control | greater than maximum tested dose |  | 110 |  |  |  |  | 
6 | CCc1ccc2c(c1)N(CC(C)CN(C)C)c1ccccc1S2 (centres unmarked) [RFM-012-636-3] | 138 | 1.71 | 133.66 % of control | greater than maximum tested dose |  | 108 |  |  |  |  | 
7 | Oc1ccc2c(c1)OC[C@@H](c1ccccc1)[C@H]2c1ccc(OCCN2CCCC2)cc1 [RFM-011-457-8] | 144 | 1.5 | 113.89 % of control | greater than maximum tested dose | 101 |  |  |  |  |  | 
8 | CNCCC(Oc1cccc2ccccc12)c1cccs1 (centres unmarked) [RFM-000-319-0] | 143 |  |  |  |  |  | 1.44 | 109.17 % of control | greater than maximum tested dose | 104 | 
9 | CCCN(CCC)C(=O)C(Cc1ccc(OCCCN2CCN(C)CC2)cc1)NC(=O)c1ccc(Cl)cc1 (centres unmarked) [RFM-009-534-1] | 135 | 3.36 | 104.27 % of control | greater than maximum tested dose | 103 |  |  |  |  |  | 
10 | CC(C)NCC(O)COc1ccc(CC(=O)OCCC23CC4CC(CC(C4)C2)C3)cc1 (centres unmarked) [RFM-010-929-5] | 122 | 1.76 | 113.56 % of control | greater than maximum tested dose | 90.2 |  |  |  |  |  | 
11 | CC(=O)[C@]1(O)Cc2c(O)c3c(c(O)c2[C@@H](O[C@H]2C[C@H](N)[C@H](O)[C@H](C)O2)C1)C(=O)c1ccccc1C3=O [RFM-000-458-0] | 103 | 1.55 |  |  |  | 15 |  | 139.58 % of control | greater than maximum tested dose |  | 
12 | COC(=O)C1=C(C)NC(C)=C(C(=O)OCCCN2CCC(c3ccccc3)(c3ccccc3)CC2)[C@@H]1c1cccc([N+](=O)[O-])c1 [RFM-003-515-4] | 136 | 1.39 |  |  |  |  |  | 83.07 % of control | greater than maximum tested dose |  | 92.9
13 | CCCCC1=Cc2cc3c(cc2C1N1CCN(C)CC1)OCO3 (centres unmarked) [RFM-005-200-6] | 145 | 2.5 | 112.43 % of control | greater than maximum tested dose | 102 |  |  |  |  |  | 
14 | CN1CCN(CC/C=C2/c3ccccc3Sc3ccc(S(=O)(=O)N(C)C)cc32)CC1 [RFM-003-384-1] | 148 | 1.22 |  |  |  | 114 |  | 116.45 % of control | greater than maximum tested dose |  | 
15 | CC(CN(C)C)CN1c2ccccc2CCc2ccccc21 (centres unmarked) [RFM-008-630-6] | 145 | 1.47 | 106.86 % of control | greater than maximum tested dose |  | 114 |  |  |  |  | 
16 | CN1C[C@H](CNC(=O)OCc2ccccc2)C[C@@H]2c3cccc4c3c(cn4C)C[C@H]21 [RFM-005-941-6] | 163 | 1.26 | 125.57 % of control | greater than maximum tested dose |  | 117 |  |  |  |  | 
17 | O=c1[nH]c2cc(Cl)ccc2n1C1CCN(CCCC(c2ccc(F)cc2)c2ccc(F)cc2)CC1 [RFM-008-181-2] | 121 | 1.84 | 97.91 % of control | greater than maximum tested dose | 107 |  |  |  |  |  | 
18 | CNc1cc(OC)c(C(=O)N[C@@H]2CCN(Cc3ccccc3)[C@@H]2C)cc1Cl [RFM-000-360-1] | 134 | 2.36 | 103.45 % of control | greater than maximum tested dose |  |  |  |  |  |  | 109
19 | Cc1ccc([C@@H](CCNCC2CCCCC2)[C@@H]2CCOC(C)(C)C2)cc1F [RFM-013-052-9] | 119 | 1.8 | 121.52 % of control | greater than maximum tested dose | 102 |  |  |  |  |  | 
20 | CCCN(CCC)C(=O)C(Cc1ccc(OCCCN2CCN(C)CC2)cc1)NC(=O)c1ccc(Br)cc1 (centres unmarked) [RFM-012-167-5] | 141 | 2.36 | 114.35 % of control | greater than maximum tested dose | 99.3 |  |  |  |  |  | 
21 | OCCN1CCN(CCC=C2c3ccccc3Sc3ccc(C(F)(F)F)cc32)CC1 [RFM-000-079-3] | 145 | 1.73 | 104.52 % of control | greater than maximum tested dose |  | 105 |  |  |  |  | 
22 | CC(C)C(=O)c1ccc(OCCCN2CCC(C(O)(c3ccc(F)cc3)c3ccc(F)cc3)CC2)cc1 [RFM-010-056-1] | 119 | 1.47 | 122.17 % of control | greater than maximum tested dose | 93.4 |  |  |  |  |  | 
23 | CCOC(=O)/C=C/[C@H](C[C@@H]1CCNC1=O)NC(=O)[C@@H](CC(=O)[C@@H](NC(=O)c1cc(C)on1)C(C)C)Cc1ccc(F)cc1 [RFM-010-414-3] | 94.6 | 4.19 | 93.65 % of control | greater than maximum tested dose | 100 |  |  |  |  |  | 
24 | CCN1[C@@H]2CC[C@H]1C[C@@H](OC(c1ccccc1)c1ccccc1)C2 [RFM-011-925-5] | 136 | 1.62 | 108.20 % of control | greater than maximum tested dose | 117 |  |  |  |  |  | 
25 | CN(C)C(=O)NC1(c2ccccc2)CCN(CCC[C@]2(c3ccc(Cl)c(Cl)c3)CCCN(C(=O)c3ccccc3)C2)CC1 [RFM-003-485-5] | 172 | 1.64 | 114.56 % of control | greater than maximum tested dose | 109 |  |  |  |  |  | 
26 | COCCN1CCC(N(Cc2ccc(-c3ccc(C(F)(F)F)cc3)cc2)C(=O)c2ccco2)CC1 [RFM-012-120-0] | 130 | 1.61 | 87.75 % of control | greater than maximum tested dose | 94.4 |  |  |  |  |  | 
27 | COc1cc2c(cc1NS(=O)(=O)c1ccc(-c3ccc(Cl)s3)cc1)CCN(C)CC2 [RFM-010-759-5] | 133 | 1.73 | 107.82 % of control | greater than maximum tested dose | 92.9 |  |  |  |  |  | 
28 | CN(C)CCC=C1c2ccccc2C(C)(C)c2ccccc21 [RFM-000-885-5] | 152 | 1.34 | 109.53 % of control | greater than maximum tested dose | 93 |  |  |  |  |  | 
